Assay results taken from patent US8980951B2, “Sesquiterpenes for antifungal applications” (Kansas State University Research Foundation, priority 2011, dated 2015).

Tested on: A. nidulans, C. albicans, C. albicans 95-158 Flu-R, Cryp. neomormans, Candida krusei, and C. glabrata
Experiment: Fungicidal test, viability of treated fungal cells spotted on YPD agar
Format: cell-based
Details: after 72 h exposure

SMILES	resistance in treated fungi
C=C1CC[C@H]2C(C)(C)CCC[C@]2(C)[C@H]1CO [Albicanol, (+)-albicanol]	not observed
CC1=CC[C@H]2C(C)(C)CCC[C@]2(C)[C@H]1CO [drimenol, (−)-drimenol]	not observed
